Series [1] deals with Voltage-gated inwardly rectifying potassium channel KCNH2 (Homo sapiens, UniProt Q12809). Briefly: Inhibition of human ERG.
Series [2] in a line: Intrinsic clearance in monkey liver microsomes. In kind it is ADME, Macaca mulatta, Microsome. Particulars: rhesus monkey. Background: Liver microsomes are vesicles of endoplasmic reticulum, rich in cytochrome P450 enzymes.
The subject of series [3] is MV4-11. Put plainly: Induction of cell cycle arrest in human MV4-11 cells assessed as accumulation at G2/M phase at 0.05 uM after 24 hrs by propidium iodide staining based flow cytometry analysis (reference value: 15.4%). Type of series: functional. (In general: In flow cytometry, cells or beads pass a laser one at a time.)
The subject of series [4] is MV4-11. Briefly: Induction of apoptosis in human MV4-11 cells assessed as early apoptotic cells at 0.4 uM after 24 hrs by Annexin V FITC/PI staining based flow cytometry analysis (reference value: 2.14%). Type of series: functional.
Series [5] addresses T1, Tyrosine-protein kinase JAK3 (Homo sapiens, UniProt P52333).
T1 sequence (P52333 whole entry): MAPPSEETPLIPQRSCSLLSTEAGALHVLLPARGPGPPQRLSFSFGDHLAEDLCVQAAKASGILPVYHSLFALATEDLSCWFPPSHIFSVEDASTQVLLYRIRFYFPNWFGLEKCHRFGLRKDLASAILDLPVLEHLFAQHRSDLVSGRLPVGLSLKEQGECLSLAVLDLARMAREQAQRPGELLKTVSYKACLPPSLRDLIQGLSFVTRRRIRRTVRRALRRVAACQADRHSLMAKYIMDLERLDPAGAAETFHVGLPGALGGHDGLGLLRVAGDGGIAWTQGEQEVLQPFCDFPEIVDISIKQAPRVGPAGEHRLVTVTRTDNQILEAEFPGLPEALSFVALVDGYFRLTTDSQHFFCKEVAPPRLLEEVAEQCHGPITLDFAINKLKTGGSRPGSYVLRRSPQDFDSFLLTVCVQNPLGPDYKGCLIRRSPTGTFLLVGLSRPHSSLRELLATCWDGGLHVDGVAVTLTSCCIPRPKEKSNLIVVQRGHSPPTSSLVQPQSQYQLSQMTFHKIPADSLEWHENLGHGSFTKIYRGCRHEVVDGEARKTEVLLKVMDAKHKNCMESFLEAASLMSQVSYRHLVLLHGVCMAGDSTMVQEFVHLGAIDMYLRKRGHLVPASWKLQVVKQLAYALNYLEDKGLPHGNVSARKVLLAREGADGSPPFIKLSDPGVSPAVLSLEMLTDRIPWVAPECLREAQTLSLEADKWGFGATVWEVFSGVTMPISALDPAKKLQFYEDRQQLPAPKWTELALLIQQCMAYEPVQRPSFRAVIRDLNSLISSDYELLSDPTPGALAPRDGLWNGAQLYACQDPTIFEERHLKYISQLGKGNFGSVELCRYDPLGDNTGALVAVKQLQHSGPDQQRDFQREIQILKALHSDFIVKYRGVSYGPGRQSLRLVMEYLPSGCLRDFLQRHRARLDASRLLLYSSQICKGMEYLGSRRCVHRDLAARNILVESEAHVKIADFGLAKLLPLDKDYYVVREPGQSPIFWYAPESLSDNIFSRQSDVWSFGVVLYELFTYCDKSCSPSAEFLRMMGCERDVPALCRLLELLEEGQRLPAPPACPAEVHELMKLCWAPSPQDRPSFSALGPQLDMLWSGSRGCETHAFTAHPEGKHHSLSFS
Briefly: Inhibition of human JAK3 (781 to end residues) using GGEEEEYFELVKK as substrate after 40 mins in presence of [gamma33P]-ATP by scintillation counting based radiometric assay.

Series [6] deals with MV4-11. Briefly: Induction of cell cycle arrest in human MV4-11 cells assessed as accumulation at G2/M phase at 0.1 uM after 24 hrs by propidium iodide staining based flow cytometry analysis (reference value: 15.4%). In kind it is functional.
Series [7] in a line: Intrinsic clearance in rat liver microsomes. Type of series: ADME, Microsome.
Series [8] relates to MV4-11. Briefly: Induction of apoptosis in human MV4-11 cells assessed as necrotic cells at 1.6 uM after 24 hrs by Annexin V FITC/PI staining based flow cytometry analysis (reference value: 0.18%). In kind it is functional.
Series [9] relates to MV4-11. Briefly: Induction of cell cycle arrest in human MV4-11 cells assessed as accumulation at G2/M phase at 0.005 uM after 24 hrs by propidium iodide staining based flow cytometry analysis (reference value: 15.4%). Type of series: functional.
For series [10], the system named is MV4-11. Briefly: Induction of apoptosis in human MV4-11 cells assessed as necrotic cells at 0.05 uM after 24 hrs by Annexin V FITC/PI staining based flow cytometry analysis (reference value: 0.18%). Type of series: functional.
In series [11] the test system is MV4-11. Put plainly: Induction of apoptosis in human MV4-11 cells assessed as viable cells at 1.6 uM after 24 hrs by Annexin V FITC/PI staining based flow cytometry analysis (reference value: 96.3%). In kind it is functional. Conditions: MV4-11, 24 h, read-out: Activity.
For series [12], the target named is JAK3/JAK1 (Homo sapiens, UniProt P23458+P52333). Briefly: Inhibition of JAK1/JAK3 in human THP-1 cells assessed as reduction in IL-4-induced STAT6 phosphorylation by flow cytometry. Type of series: cell-based.
Chain of JAK3/JAK1 (P23458 whole entry, one chain of several): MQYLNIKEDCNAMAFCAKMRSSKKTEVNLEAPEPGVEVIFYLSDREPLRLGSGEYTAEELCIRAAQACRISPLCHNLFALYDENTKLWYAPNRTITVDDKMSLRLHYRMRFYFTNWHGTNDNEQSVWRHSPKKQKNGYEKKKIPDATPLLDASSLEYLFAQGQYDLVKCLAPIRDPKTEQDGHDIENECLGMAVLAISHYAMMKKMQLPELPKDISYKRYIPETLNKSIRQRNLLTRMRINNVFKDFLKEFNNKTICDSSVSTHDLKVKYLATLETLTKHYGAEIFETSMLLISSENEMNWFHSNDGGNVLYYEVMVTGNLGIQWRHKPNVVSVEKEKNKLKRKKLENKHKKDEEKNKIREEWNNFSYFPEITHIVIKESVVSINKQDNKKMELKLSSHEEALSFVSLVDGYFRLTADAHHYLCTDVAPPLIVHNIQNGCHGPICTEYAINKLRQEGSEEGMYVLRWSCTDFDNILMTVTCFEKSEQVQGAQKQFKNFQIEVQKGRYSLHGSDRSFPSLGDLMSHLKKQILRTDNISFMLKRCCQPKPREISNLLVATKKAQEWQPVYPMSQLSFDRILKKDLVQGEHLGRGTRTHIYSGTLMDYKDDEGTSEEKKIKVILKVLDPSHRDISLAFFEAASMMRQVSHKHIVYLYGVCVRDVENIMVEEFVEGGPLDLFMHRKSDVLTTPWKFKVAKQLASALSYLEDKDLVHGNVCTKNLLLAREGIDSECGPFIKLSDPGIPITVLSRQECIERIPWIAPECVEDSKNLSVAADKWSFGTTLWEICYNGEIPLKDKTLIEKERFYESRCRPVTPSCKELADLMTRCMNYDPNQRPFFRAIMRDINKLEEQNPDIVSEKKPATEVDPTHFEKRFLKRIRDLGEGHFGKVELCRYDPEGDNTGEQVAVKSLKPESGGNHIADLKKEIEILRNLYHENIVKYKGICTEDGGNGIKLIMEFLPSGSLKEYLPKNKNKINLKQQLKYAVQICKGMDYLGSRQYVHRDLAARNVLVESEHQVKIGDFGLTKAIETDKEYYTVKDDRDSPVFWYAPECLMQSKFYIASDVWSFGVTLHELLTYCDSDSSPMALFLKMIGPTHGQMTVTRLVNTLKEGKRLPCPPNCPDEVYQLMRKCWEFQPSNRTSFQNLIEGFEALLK
Series [13] is described as follows: Anti-myelofibrosis activity against mouse BAF3(transformed) cells harboring with JAK2 V617F mutant allografted in NOD/SCID mouse assessed as reduction in liver weight at 60 mg/kg, po qd for 20 days measured on day 25 relative to control. Type of series: functional.
Series [14] concerns MV4-11. Put plainly: Induction of apoptosis in human MV4-11 cells assessed as early apoptotic cells at 0.05 uM after 24 hrs by Annexin V FITC/PI staining based flow cytometry analysis (reference value: 2.14%). In kind it is functional.
Series [15] in a line: Cmax in Sprague-Dawley rat at 5 mg/kg, po measured up to 24 hrs by LC/MS/MS analysis. Also on record: dose 5 mg/kg, route oral. Type of series: ADME, organism-based. Conditions: in vivo, 24 h.
Series [16] relates to MV4-11. Put plainly: Induction of apoptosis in human MV4-11 cells assessed as viable cells at 0.05 uM after 24 hrs by Annexin V FITC/PI staining based flow cytometry analysis (reference value: 96.3%). In kind it is functional. Particulars: MV4-11, 24 h, read-out: Activity.
Series [17] concerns MV4-11. Briefly: Induction of apoptosis in human MV4-11 cells assessed as late apoptotic cells at 0.2 uM after 24 hrs by Annexin V FITC/PI staining based flow cytometry analysis (reference value: 1.38%). Type of series: functional.
Series [18] is described as follows: Toxicity in NOD/SCID mouse xenografted with human SET2 cells overexpressing JAK2 V617F mutant assessed as animal survival at 30 to 60 mg/kg, po qd for 18 days. In kind it is organism-based. Conditions: in vivo.
The target in series [19] is Cytochrome P450 2C9 (Homo sapiens, UniProt P11712). Put plainly: Inhibition of CYP2C9 (unknown origin). Type of series: ADME.
Chain of Cytochrome P450 2C9 (P11712 whole entry): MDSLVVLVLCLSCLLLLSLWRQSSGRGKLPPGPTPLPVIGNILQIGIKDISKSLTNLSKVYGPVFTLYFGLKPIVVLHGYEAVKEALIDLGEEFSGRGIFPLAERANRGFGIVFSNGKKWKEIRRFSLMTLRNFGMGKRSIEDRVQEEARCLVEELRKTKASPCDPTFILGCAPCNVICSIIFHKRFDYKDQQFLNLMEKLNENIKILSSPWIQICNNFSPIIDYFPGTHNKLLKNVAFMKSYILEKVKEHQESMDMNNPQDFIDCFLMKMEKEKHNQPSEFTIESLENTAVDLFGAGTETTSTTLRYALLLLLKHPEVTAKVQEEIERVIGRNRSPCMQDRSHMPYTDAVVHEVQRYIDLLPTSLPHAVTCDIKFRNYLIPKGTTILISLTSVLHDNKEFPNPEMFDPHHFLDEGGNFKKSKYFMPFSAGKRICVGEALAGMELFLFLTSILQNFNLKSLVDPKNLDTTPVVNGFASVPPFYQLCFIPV
Series [20] can be described thus: AUC (0 to t) in Sprague-Dawley rat at 5 mg/kg, po measured up to 24 hrs by LC/MS/MS analysis. On the set-up: dose 5 mg/kg, time < 24 hr, route oral. Conditions: in vivo, 24 h. In kind it is ADME, organism-based.
Series [21] relates to MV4-11. Put plainly: Induction of cell cycle arrest in human MV4-11 cells assessed as accumulation at G0/G1 phase at 0.005 uM after 24 hrs by propidium iodide staining based flow cytometry analysis (reference value: 54.49%). In kind it is functional.
A short description of series [22]: Cytotoxicity against rat H9c2(2-1) cells assessed as cell viability after 72 hrs by MTT assay. In kind it is cell-based. (Tetrazolium assays rely on reduction of a dye to a coloured formazan, in cell work by metabolically active cells.)
Series [23] in a line: Toxicity in NOD/SCID mouse xenografted with FLT3-ITD-positive human MV4-11 cells assessed as body weight at 30 to 60 mg/kg, po qd for 14 days. Particulars: in vivo, 336 h. Type of series: organism-based.

Chain of Voltage-gated inwardly rectifying potassium channel KCNH2 (Q12809 whole entry): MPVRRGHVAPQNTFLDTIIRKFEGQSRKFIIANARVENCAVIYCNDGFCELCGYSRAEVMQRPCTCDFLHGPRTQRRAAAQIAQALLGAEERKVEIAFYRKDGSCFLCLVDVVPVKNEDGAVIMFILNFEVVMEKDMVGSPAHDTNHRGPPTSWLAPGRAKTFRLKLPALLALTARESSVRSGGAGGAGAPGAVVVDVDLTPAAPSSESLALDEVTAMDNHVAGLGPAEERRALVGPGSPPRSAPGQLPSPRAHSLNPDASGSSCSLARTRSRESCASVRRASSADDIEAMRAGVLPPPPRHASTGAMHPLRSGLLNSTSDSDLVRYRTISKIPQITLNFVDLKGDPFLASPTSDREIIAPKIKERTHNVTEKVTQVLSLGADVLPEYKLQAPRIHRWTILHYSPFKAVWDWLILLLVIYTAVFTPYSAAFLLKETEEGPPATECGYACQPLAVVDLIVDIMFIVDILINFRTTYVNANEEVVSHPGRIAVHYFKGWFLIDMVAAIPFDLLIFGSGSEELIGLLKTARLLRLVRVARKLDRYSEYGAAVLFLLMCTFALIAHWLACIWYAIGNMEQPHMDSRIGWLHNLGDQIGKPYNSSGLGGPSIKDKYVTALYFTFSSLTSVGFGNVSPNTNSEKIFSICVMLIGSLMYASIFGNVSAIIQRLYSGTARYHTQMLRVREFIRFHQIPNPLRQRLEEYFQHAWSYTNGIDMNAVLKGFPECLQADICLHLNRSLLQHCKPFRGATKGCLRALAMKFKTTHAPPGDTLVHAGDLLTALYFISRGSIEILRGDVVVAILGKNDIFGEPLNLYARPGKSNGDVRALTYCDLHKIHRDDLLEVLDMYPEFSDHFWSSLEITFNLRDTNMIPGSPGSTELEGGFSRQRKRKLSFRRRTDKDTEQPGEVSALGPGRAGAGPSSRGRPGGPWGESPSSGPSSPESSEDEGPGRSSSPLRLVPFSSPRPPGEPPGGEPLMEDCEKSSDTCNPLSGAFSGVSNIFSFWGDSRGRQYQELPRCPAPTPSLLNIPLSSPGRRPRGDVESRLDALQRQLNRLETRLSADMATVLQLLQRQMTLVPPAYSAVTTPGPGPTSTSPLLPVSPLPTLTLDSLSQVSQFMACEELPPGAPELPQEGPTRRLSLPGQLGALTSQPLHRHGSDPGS

For `Cc1cnc(Nc2ccc(N3CCC(N(C)CCO)CC3)c(F)c2)nc1-c1cnn(C(C)C)c1`, the IC50 (as a rule, the concentration needed to halve the response being measured) came out at 28 µM in series [1], 0.039 µM in series [5], 0.578 µM in series [12] and 78.1 µM in [19]. Also, the CLH in [2] came to 0.5 µL/min/mg; in series [7], 0.9 µL/min/mg. For the same molecule, the Activity in series [3] is recorded as 5.51%; in series [4], 21.2%; in series [6], 5.04%; in series [8] it was 0.68%; in series [9], 15.4%; in series [10], 0.29%. Also, the Activity in series [14] was 5.53%; in series [17] it was 9.88%; in series [21] it was 55.92%; in series [22], “Non-Toxic”; in series [23], “Non-Toxic”. Also, the viability at 1.6 µM in [11] amounted to 24.9%. For the same molecule, the inhibition in vivo (in general, how much of the control response was suppressed) at 60 mg/kg in [13] is 94.3%. Moreover, the Cmax (as a rule, the maximum level reached in the sampled fluid or tissue) in [15] came out at 102 ng/mL. Further, the viability at 0.05 µM in series [16] was determined as 89.6%. The survival at 432 h in [18] amounted to 100%. This molecule returned an AUCt in series [20] of 2552 ng·h/mL.

Values taken from ChEMBL document CHEMBL4321837, “Discovery of Potent and Orally Effective Dual Janus Kinase 2/FLT3 Inhibitors for the Treatment of Acute Myelogenous Leukemia and Myeloproliferative Neoplasms” (J Med Chem, 2019).
